Reference: the METLIN SMRT retention time set (Domingo-Almenara et al. 2019)

Experiment: gradient 5% acetonitrile 3 min, to 50% in 2 min, to 85% in 15 min, held 3 min, 100 µL/min
Details: column: Zorbax Extend-C18 2.1 x 50 mm; eluents: water / acetonitrile, 0.1% formic acid
How it was run: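 The system's dead and dwell volumes were 40 μL and 900 μL, with a Zorbax Extend-C18 column (2.1 × 50 mm, 1.8 μm) run at 100 μL/min in water and acetonitrile containing 0.1% formic acid each. Pure standards were analyzed in mixtures of ~100 molecules by HPLC–quadrupole time-of-flight mass spectrometry in positive and negative ionization mode. Retention time was assigned from computationally picked, manually inspected adduct peaks.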

Row | RP-LC retention time [s] | Compound
1 | 1040 | Cc1sc(NC(=O)c2cccc(Br)c2)nc1-c1ccc2c(c1)NC(=O)C(C)O2 (centres undefined)
2 | 764 | COc1ccc(Cl)cc1S(=O)(=O)NCCc1cn(C)c2ncccc12
3 | 947 | Cc1cc(C)n(-c2c(C)c(C)nc3c(-c4ccccc4)cnn23)n1
4 | 985 | Cc1ccc(CNC(=O)Cn2nc3c4cc(-c5cc(C)ccc5C)nn4ccn3c2=O)cc1
5 | 891 | O=C(CCc1ccccc1)N1CCN(C(=O)c2nnn3c2COC(c2ccccc2)C3)CC1 (centres undefined)
6 | 889 | COc1ccccc1N1CCN(c2nnc(-c3nnc(C)o3)c3ccccc23)CC1
7 | 881 | O=C(c1ccc(Br)o1)N1CCC(Cc2nnc(-c3ccccc3)o2)CC1
8 | 638 | Cc1noc(-c2ccnc(-n3cnc(C(=O)N4CCOCC4)c3)c2)n1
9 | 858 | Cc1ccc(Cl)cc1NC(=O)N1CCC(c2nc(C(=O)N3CCCC3)c(C)o2)CC1
10 | 825 | CC1CN(C(=O)COc2ccc3ccccc3c2)c2ccccc2NC1=O (centres undefined)
11 | 642 | Cc1cc(NC(=O)Nc2ccc3nc(N4CCN(C)CC4)cc(C)c3c2)ccc1Br
12 | 1230 | Cc1ccc(-c2nnc(Cc3nc(-c4ccccc4Cl)no3)o2)cc1C
13 | 667 | COC(=O)[C@H](CCCN=C(N)N)NS(=O)(=O)c1ccc(C)cc1
14 | 935 | COc1ccc(CNC(=O)C2(C)CCN(C(=O)Nc3ccc(C)c(Cl)c3)CC2)cc1
15 | 621 | CCN1C(=O)CN(C(=O)c2ccsc2)CC12CCOCC2
16 | 846 | COc1ccc(CNC(=O)C2CCN(C(=O)N3CCOc4ccc(Cl)cc43)CC2)cc1
17 | 799 | O=C(Cn1cc(-c2ccccc2)c2ncn(C3CC3)c(=O)c21)NCc1ccco1
18 | 638 | CCC1CCCCN1CCCNC(=O)c1c(N2CCCC2=O)c2cc(OC)ccc2n1C (centres undefined)
19 | 585 | CNC(=O)[C@@H]1CN(C(=O)c2cscn2)C[C@H]1c1nc(C)no1
20 | 950 | O=C(Nc1nnc(Cc2ccc3c(c2)OCCO3)o1)c1sc2ccccc2c1Cl
21 | 773 | CCn1ccc2sc(C)c(C(=O)N3CCN(c4ccccc4)CC3)c2c1=O
22 | 1060 | Cc1nc2cc(-c3noc(COc4ccc(Cl)cc4)n3)ccc2o1
23 | 938 | CC(=O)c1ccc(NC(=O)COc2cc(C)nc(-c3ccc(F)cc3)n2)cc1

Row | RP-LC retention time [s] | Compound
24 | 586 | CSc1ncccc1C(=O)N1CCCn2nc(-c3ccncc3)cc2C1
25 | 709 | COc1ccc(CCC(=O)N2CCN(c3nnc4ccc(C(F)(F)F)cn34)CC2)cc1
26 | 555 | CCN1CCN(C(=O)CCC2CCCN(c3cc(NC4CC4)ncn3)C2)CC1 (centres undefined)
27 | 627 | CCc1nnc(C2CN(C)CC23CCN(S(=O)(=O)c2ccccc2C)CC3)o1 (centres undefined)
28 | 859 | COc1ccc(NC(=O)c2nnc(CSCC(=O)NCCc3c[nH]c4ccccc34)s2)cc1
29 | 998 | CC(CCc1ccccc1)NC(=O)C1CCN(c2cc(Oc3ccccc3)ncn2)CC1 (centres undefined)
30 | 964 | CCS(=O)(=O)N1CCc2ccc(NC(=O)COc3ccc(Cl)cc3Cl)cc2C1
31 | 724 | CCn1cnc(S(=O)(=O)N2CCC(C(=O)Nc3ccc(OC)c(Cl)c3)CC2)c1
32 | 644 | CN(C)CCCNC(=O)C1CCN(c2nc3ccc(-c4ccsc4)nc3s2)CC1
33 | 980 | Cc1ccc(Cl)cc1N1C(=O)CN(S(C)(=O)=O)CC1(C)C(=O)NC1CCCCCCC1 (centres undefined)
34 | 1050 | COc1ccccc1N1CCN(C(=O)c2sc3cccc(F)c3c2OC)CC1
35 | 845 | CC(Oc1ccc(=O)n(-c2ccc(F)cc2)n1)C(=O)Nc1ccc(Cl)cc1 (centres undefined)
36 | 980 | COc1ccc(C2CC(=O)N(c3ccc(F)c(Cl)c3)C(=O)C2)cc1
37 | 821 | O=C([C@@H]1C[C@H](F)CN1C(=O)Nc1ccc(C(F)(F)F)cc1)N1CCCCC1
38 | 780 | CCN1C(=O)c2cccnc2Sc2cc(C(=O)NCc3ccccc3)ccc21
39 | 760 | COc1cccc(NC(=O)C2CCN(S(=O)(=O)c3cc(C(=O)N(C)C)cs3)CC2)c1
40 | 674 | Cn1nc(C(=O)N2CCCC(C(=O)NC3CC3)C2)c2c1CCN(C(=O)COc1ccc(F)cc1)C2 (centres undefined)
41 | 817 | Cc1cc(C)c(S(=O)(=O)N2CC(F)(F)C[C@H]2COc2cccnc2)cc1C
42 | 764 | COC(=O)c1c(NCc2cccs2)c2cccc(Cl)c2[nH]c1=O
43 | 591 | CC(C)NC(=O)N1Cc2ccccc2OC2(CCN(C)CC2)C1
44 | 659 | O=C(NCCn1cnc(-c2ccccc2)cc1=O)c1ccc2nsnc2c1
45 | 819 | O=C(Nc1ccc(Cl)cc1)C1CCN(C(=O)C2Sc3ccccc3NC2=O)CC1 (centres undefined)
46 | 657 | Cc1ccn2cc(-c3ccc(NC(=O)C4CCCCC4)cc3)nc2n1

Row | RP-LC retention time [s] | Compound
47 | 1080 | Cc1ccc(Nc2nc(-c3ccc(Br)cc3)cs2)nc1
48 | 731 | Cc1ccc(C)c(NC(=O)Cn2cnc3nc(N4CCCC(C(=O)NC(C)C)C4)sc3c2=O)c1 (centres undefined)
49 | 666 | CC1(C)CC(=O)C(CC(=O)c2ccccc2)=C(NN=C(N)N)C1
50 | 958 | COc1ccc2c(c1)c(CC(=O)OCC(=O)O)c(C)n2C(=O)c1ccc(Cl)cc1
51 | 1090 | CCOc1ccccc1NC(=O)CN1c2ccc(F)cc2-c2ccccc2S1(=O)=O
52 | 574 | c1ccc(-c2n[nH]c(C3CCCCN3)n2)cc1 (centres undefined)
53 | 618 | Cc1nn(C)c(C)c1S(=O)(=O)N1CCC(n2c(C)cnc2-c2ccccc2)C1 (centres undefined)
54 | 787 | COCCOC(=O)C1=C(C)NC2=C(C(=O)CC(C)(C)C2)C1c1cccc(OC)c1OC (centres undefined)
55 | 1270 | CCN(CC)c1nc2cc(C(=O)OC)ccc2c(=O)n1-c1ccc(C)c(C)c1
56 | 602 | CCCN(CCC)C(=O)C1CCN(C(=O)c2ccccc2Cl)CC1
57 | 918 | COc1ccc(-c2nc(N(C)C3CCCCC3)c3ccccc3n2)cc1
58 | 628 | CN1Cc2sccc2C(c2ccc(O)c(O)c2)C1 (centres undefined)
59 | 1260 | Cc1cccc(OCCCC(=O)Nc2nc(-c3ccc(Br)cc3)cs2)c1
60 | 1110 | CCn1nnc(NCc2ccc(-c3cc(Cl)ccc3Cl)o2)n1
61 | 567 | O=C(CN1CCCCCC1)NCC12CCCC=C1NC(=O)CC2 (centres undefined)
62 | 1120 | Cc1nc(-c2cc(S(=O)(=O)Nc3ccc(Br)c(C)c3)c(C)s2)cs1
63 | 638 | Cc1cc2c(cc1S(=O)(=O)N1CCCC1C(=O)N1CCOCC1)OC(C)C(=O)N2 (centres undefined)
64 | 772 | COc1cccc(-c2cc(C(=O)N3CCN(c4ccccc4F)CC3)n(C)n2)c1
65 | 663 | Cn1cnc(S(=O)(=O)N2CCC(C(=O)Nc3ccc4c(c3)OCCO4)CC2)c1
66 | 687 | COc1ccc(NC(=O)N2C[C@@H](F)C[C@H]2C(=O)N2CCCCC2)c(OC)c1
67 | 1360 | CCOC(=O)c1c(C)oc2ncnc(Nc3cc(Cl)ccc3OC)c12
68 | 765 | O=C(NCc1ccc2c(c1)OCO2)c1ccc2c(c1)NC(=O)C1CCCCN21 (centres undefined)
69 | 629 | COc1ccc(CN2CCC3(CC2)CC(C)(O)CCO3)cc1C (centres undefined)

Row | RP-LC retention time [s] | Compound
70 | 932 | Cc1[nH]nc(-c2ccc(S(=O)(=O)N3CCC(C)CC3)o2)c1C
71 | 957 | Cc1ccc2c(c1)N(S(C)(=O)=O)CCC(C(=O)NC1CCCCCC1)O2 (centres undefined)
72 | 726 | CC1CCC(NC(=O)c2ccc(Cn3cncn3)cc2)CC1 (centres undefined)
73 | 928 | O=C(CCn1nnc2cc(-c3noc(-c4cccc(F)c4)n3)ccc21)N1CCCC1
74 | 1290 | CCc1ccccc1NS(=O)(=O)c1cc(-c2nc(C(C)(C)C)cs2)cs1
75 | 824 | Cn1c(N2CCC(C(=O)N3CCC(Cc4ccccc4)CC3)CC2)cc(=O)n(C)c1=O
76 | 1170 | Fc1ccc(-c2nc(-c3ccc(-n4cccn4)nc3)no2)c(F)c1
77 | 1220 | COc1ccc(Cl)cc1NS(=O)(=O)c1c(C)sc(C)c1-c1cc(C(F)(F)F)on1
78 | 690 | CN1CCn2cc(S(=O)(=O)Nc3ccc(F)cc3Cl)cc2C1=O
79 | 732 | CCc1nnc2cc(N3CCN(S(=O)(=O)c4ccc(C)cc4)CC3)cnn12
80 | 658 | CC(C)c1ccc(Sc2ccc(N3CCC(C(=O)NCCN(C)C)CC3)nn2)cc1
81 | 695 | Cc1ccc(NC(=O)Nc2ccc3nnc(C)n3c2)c(C)c1
82 | 822 | CCCN(CCC)C(=O)C(CCC(=O)O)NC(=O)c1ccccc1 (centres undefined)
83 | 644 | Cc1cccc(S(=O)(=O)Nc2cccc(-c3cn4ccccc4n3)c2)c1
84 | 722 | COCCNCc1ccc(-c2cc(Cl)cc(Cl)c2)o1
85 | 596 | COc1ccc(-n2c(=O)n(C)c(=O)c3cc(C(=O)NCc4ccncc4)cnc32)cc1
86 | 983 | Cc1ccc(N2C(=O)CN(S(=O)(=O)c3ccc(C)cc3)CC2(C)C(=O)NC2CCCC2)cc1 (centres undefined)
87 | 1080 | Cc1nc(-c2ccc3c(c2)CCN3C(=O)COc2ccc(Cl)cc2)cs1
88 | 790 | CCn1c(=O)c(C(=O)NCc2ccc(F)cc2)nc2cccnc21
89 | 731 | CC(=O)Nc1cccc(N2CC(C(=O)NC3CCCCCCC3)CC2=O)c1 (centres undefined)
